Each structure is given as a SMILES string. Where two headings read alike, the source gives them in different places.

Data set [1] addresses T1, human MrgX1 receptor (Homo sapiens, UniProt Q96LB2).
T1 construct: expressed in transfected cells
The data set is described as follows: IP1 Cellular Assay for EC50 Determination Against hMrgX1 by HTRF. Type of data set: cell-based. Particulars: in presence of EC15 of BAM8-22; for EC50: HEK293 cells stably expressing hMrgX1, geometric mean (SEM, n), read-out: Relative EC50 (SEM, n). The protocol:
IP1 Cellular Assay for EC50 Determination Against hMrgX1 by HTRF
Cell plating: HEK293 cells stably expressing the recombinant human MrgX1 receptor are expanded in culture flasks (Corning, T150), using growth media containing DMEM with glutamine (GIBCO™, Cat. #11960-044) supplemented with 10% heat-inactivated FBS (HyClone™, Cat. #CH30073), 1% penicillin/streptomycin (HyClone™, Cat. #SV30010; 10,000 U/mL penicillin; 10,000 μg/mL streptomycin in 0.85% NaCl), 20 mM HEPES (GIBCO™, Cat. #15530122) and 0.3 mg/mL G418 (GIBCO™, Cat. #11811031). When cell monolayers achieve a level of 80-90% confluence, monolayers are washed once with 10 mL of DPBS (HyClone™, Cat. #14190-144), dissociated using TrypLE™ Express enzyme cell dissociation media (GIBCO™, Cat. #12605-010), and diluted by addition of 10 mL DPBS. Dissociated cells are transferred to a sterile 50 mL conical tube, pelleted by centrifugation at 300×g to remove the growth and dissociation media, and diluted to 1M cells/mL into DMEM for plating.
IP1 Potency and Efficacy Determination: Test compounds are dissolved in DMSO to a concentration of 10 mM and serially diluted in DMSO to obtain a 10-point concentration response stock dilution plate. Growth media is removed from the cell plate, and the stock 10-point dilution plate is diluted into media and stamped into the cell plate at a concentration 2× higher than the final test concentration of 30 μM maximum. The endogenous agonist […] (Tocris-BioScience® Cat. #1763) is diluted to the EC15, determined independently at a minimum of n=3, into the cell plate and incubated at room temperature for 120 min. Subsequently, half the volume each of anti-IP1 cryptate and d2-labeled IP1 in lysis buffer, supplied with the IP-One Gq Kit (CisBio Cat. #62IPAPEC) are added to the cell plate to initiate cell lysis, and incubated for 60 min at room temperature in the dark. At that point, fluorescence is determined at 620 and 665 nm (˜100 μs following laser excitation).
Data Analysis: Fluorescent ratios are determined as the ratio of the fluorescence emission at […] and converted to IP1 concentration, using the IP1 standard curve generated in a separate plate, following the manufacturer's instructions. The IP1 concentration is then plotted as a function of compound concentration. Potentiator potency (EC50) is defined as the compound concentration, in the presence of the EC15 of the endogenous agonist […], resulting in 50% of the increase in IP1 concentration achieved by a saturating concentration of […], and is determined by using Genedata software (GeneData AG, Basel Switzerland) fitting the following equation to the 10-point CRC, where y is the IP1 concentration determined for a given compound concentration, [L] denotes the concentration of test compound and Max is the maximum increase achieved by a saturating concentration of […]: Y=Max*[L]/(EC50+[L]) EC50 values are reported as the geometric mean in nM (SEM, n).

Data set [2] is described as follows: Plasma and brain homogenate protein binding by equilibrium dialysis. In kind it is in vitro ADME, mouse. The protocol:
Determination of plasma and brain protein binding: Mouse plasma and brain homogenate protein binding is determined in vitro using equilibrium dialysis, as described elsewhere [Zamek-Gliszczynski et al., J Pharm Sci, 101:1932-1940, 2012]. The results are reported as fraction unbound in plasma (fu,plasma) and brain (fu,brain) which are then utilized to calculate Kp,uu,brain as described below. Mouse fu,plasma and fu,brain of Example 2 are determined to be 0.0421 and 0.0181, respectively.

Data set [3] in a line: In Vivo Determination of Kp,uu,brain in Mice. Particulars: for Kp uu at 2 h / concentration at 2 h: male, mouse; for Kp uu at 2 h: C57Bl/6, brain/plasma; for concentration at 2 h: C57Bl/6, mouse, po. On the set-up: species or system mouse. From the text: In Vivo Determination of Kp,uu,brain in Mice
Unbound brain-to-plasma partition coefficient (Kp,uu,brain) is one of the key pharmacokinetic parameter for evaluating a compound's ability to cross the blood-brain barrier (BBB). It is typically measured in pre-clinical species using the following methodology. Kp,uu,brain values indicate the fraction of free drug in plasma that partitions across the BBB.
Subjects: The subjects for these studies are 12 male C57Bl/6 mice (Envigo, Indianapolis, IN, USA) between 8-10 weeks old at time of test. Mice are housed in groups of 4 in high density plastic home cages. Food and water is available ad libitum. The rooms are maintained at 73° F. with 30-70% relative humidity and kept on a light/dark cycle of 0600-1800 h. Agent: The compound of Example 2 is prepared at 0.3, 1, and 3 mg/ml in the 1% HEC, 0.25% TWEEN®80, 0.05% DOWSIL™ vehicle in water. Prepared compound is sonicated in water bath for 30 min until a suspension is formed. Mice are dosed at 10 ml/kg for a respective 3, 10 or 30 mg/kg dose. Dosing and Tissue Collection: For this experiment, four mice per dosing group receive oral dosing of either: 3, 10, or 30 mg/kg of the compound of Example 2. Mice are euthanized at 2 h post-dosing via CO2 asphyxiation, plasma samples are collected via cardia puncture, and mouse brains removed, weighed, and frozen on dry ice. Blood samples are stored in EDTA tubes on wet ice and centrifuged at 15 k rpm for 10 min. Plasma is collected, plated in a 96-well plate, and frozen at −80° C.
Pharmacokinetic sampling: Plasma and brain samples obtained are analyzed for Example 2 using an LC-MS/MS method (Q2 Solutions, Indianapolis, IN, USA). Plasma samples are extracted using protein precipitation. The lower limit of quantification is 25 ng/mL, and the upper limit of quantification is 5000 ng/mL. Brain samples are homogenized, and the analyte is extracted using protein precipitation. The lower limit of quantification is 4 ng/g and the upper limit of quantification is 200000 ng/g.
Analysis and Results: Kp,uu,brain is calculated for each time point from the expression below where individual components are derived from a combination of in vitro and in vivo measurements carried out as described above:
[formula] where Ctotal,brain, Cu,brain, Ctotal,plasma, and Cu,plasma are total and unbound brain and plasma concentrations, and fu,brain and fu,plasma are fractions unbound in brain and plasma, respectively.

T1 sequence (Q96LB2 whole entry): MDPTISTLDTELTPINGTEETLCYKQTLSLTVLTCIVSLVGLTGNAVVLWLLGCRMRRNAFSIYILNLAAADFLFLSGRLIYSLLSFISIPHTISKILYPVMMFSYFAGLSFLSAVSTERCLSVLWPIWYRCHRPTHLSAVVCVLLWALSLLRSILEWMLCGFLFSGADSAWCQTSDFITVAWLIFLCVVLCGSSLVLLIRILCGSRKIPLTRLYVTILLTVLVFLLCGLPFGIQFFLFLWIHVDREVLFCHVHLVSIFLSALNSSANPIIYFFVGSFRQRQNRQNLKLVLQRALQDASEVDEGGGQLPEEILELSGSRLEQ

With `N#Cc1cc(F)c(Oc2cc(C(F)(F)F)nc(N)n2)c(F)c1` [Example 3, 4-[2-Amino-6-(trifluoromethyl)pyrimidin-4-yl]oxy-3,5-difluoro-benzonitrile], the EC50 in data set [1] was determined as 104 nM.
Take `Nc1nc(Oc2c(F)cc(F)cc2F)cc(C(F)(F)F)n1` [Example 2, 4-(2,4,6-Trifluorophenoxy)-6-(trifluoromethyl)pyrimidin-2-amine]: the 50% effective concentration (EC50) in data set [1] is 61 nM. Further, the fraction unbound in data set [2] (mouse brain homogenate, read-out: fraction unbound in brain (fu,brain)) was 0.0181; in data set [2] (mouse plasma, read-out: fraction unbound in plasma (fu,plasma)), 0.0421. The “blood brain barrier crossing / central penetrance” value in data set [3] (2 h post-oral administration in mice) was “crosses the blood brain barrier and has central penetrance”. Also, the Kp uu at 2 h in data set [3] (3 mg/kg oral) was found to be 0.506 ± 0.107; in data set [3] (10 mg/kg oral), 0.586 ± 0.116; in data set [3] (30 mg/kg oral) it was 0.601 ± 0.0553. The concentration at 2 h is 972 ± 353 nM in data set [3] (brain, 3 mg/kg, 3 mg/kg oral, read-out: Total brain conc. (Ctotal,brain) ± SD); 17.6 ± 6.39 nM in data set [3] (brain, 3 mg/kg, 3 mg/kg oral, using fu,brain 0.0181, read-out: Unbound brain conc. (Cu,brain) ± SD); 3900 ± 1800 nM in data set [3] (brain, 10 mg/kg, 10 mg/kg oral, read-out: Total brain conc. (Ctotal,brain) ± SD); 55.4 ± 32.5 nM in data set [3] (brain, 10 mg/kg, 10 mg/kg oral, using fu,brain 0.0181, read-out: Unbound brain conc. (Cu,brain) ± SD); 13700 ± 4200 nM in data set [3] (brain, 30 mg/kg, 30 mg/kg oral, read-out: Total brain conc. (Ctotal,brain) ± SD); 248 ± 75.9 nM in data set [3] (brain, 30 mg/kg, 30 mg/kg oral, using fu,brain 0.0181, read-out: Unbound brain conc. (Cu,brain) ± SD). In addition, the concentration at 2 h came to 809 ± 140 nM in data set [3] (plasma, 3 mg/kg, 3 mg/kg oral, read-out: Total plasma conc. (Ctotal,plasma) ± SD); 34.1 ± 5.94 nM in data set [3] (plasma, 3 mg/kg, 3 mg/kg oral, using fu,plasma 0.0421, read-out: Unbound plasma conc. (Cu,plasma) ± SD); 2770 ± 651 nM in data set [3] (plasma, 10 mg/kg, 10 mg/kg oral, read-out: Total plasma conc. (Ctotal,plasma) ± SD); 117 ± 27.4 nM in data set [3] (plasma, 10 mg/kg, 10 mg/kg oral, using fu,plasma 0.0421, read-out: Unbound plasma conc. (Cu,plasma) ± SD); 9700 ± 2410 nM in data set [3] (plasma, 30 mg/kg, 30 mg/kg oral, read-out: Total plasma conc. (Ctotal,plasma) ± SD); 409 ± 101 nM in data set [3] (plasma, 30 mg/kg, 30 mg/kg oral, using fu,plasma 0.0421, read-out: Unbound plasma conc. (Cu,plasma) ± SD).
As to `Nc1nc(Oc2c(F)cccc2F)cc(C(F)(F)F)n1` [Example 1, 4-(2,6-Difluorophenoxy)-6-(trifluoromethyl)pyrimidin-2-amine], the EC50 in data set [1] is 72 nM.
On to `Cc1c(Oc2c(F)cccc2F)nc(N)nc1C(F)(F)F` [Example 6, 4-(2,6-difluorophenoxy)-5-methyl-6-(trifluoromethyl)pyrimidin-2-amine], for which, in data set [1], the concentration giving a half-maximal response (EC50) worked out at 38 nM.
With `Cc1c(Oc2c(F)cc(C#N)cc2F)nc(N)nc1C(F)(F)F` [Example 5, 4-[2-Amino-5-methyl-6-(trifluoromethyl)pyrimidin-4-yl]oxy-3,5-difluoro-benzonitrile], in data set [1], the EC50 came out at 82 nM. The “Max (Mean ± SEM)” value in data set [1] (maximum stimulation achieved in the assay) stood at 120 nM.
As to `Cc1c(Oc2c(F)cc(F)cc2F)nc(N)nc1C(F)(F)F` [Example 4, 5-Methyl-4-(trifluoromethyl)-6-(2,4,6-trifluorophenoxy)pyrimidin-2-amine], the half-maximal effective concentration (EC50) in data set [1] was 40 nM.

The values above are taken from patent US11773067B2, “(Trifluoromethyl)pyrimidine-2-amine compounds” (Eli Lilly and Company, priority 2020, dated 2023).
